# Experimental data as given in publication PMC11763264, “Antibacterial and Antifungal Activities of Linear and Cyclic Peptides Containing Arginine, Tryptophan, and Diphenylalanine” (Antibiotics, 2025).
# Values joined by “and” are separate entries in the source; they are usually repeats but may differ in a detail not shown here. Identical values can stand only once. Non-standard residues stand in square brackets, D forms with d. Residues, ends and D or L forms follow the SMILES beside them. Dip = N[C@H](C(=O)O)C(c1ccccc1)c1ccccc1
# Columns and labels:
# E. faecium (ATCC 700221) = test: microbe, parasite or virus in culture; type: cell-based, Enterococcus faecium; settings: ATCC 700221, 24 h
# Method: (§1) The antibacterial activity of all ten synthesized linear and cyclic peptides was evaluated against MRSA (ATCC BAA-1556), S. aureus (ATCC 29213), E. faecium (ATCC 700221), S. pneumoniae (ATCC 51938), E. faecalis (ATCC 29212), B. subtilis (ATCC-6633), K. pneumoniae (ATCC BAA-1705), P. aeruginosa (ATCC 27883), and E. coli (ATCC 25922). Meropenem and daptomycin were used as positive controls for this study. Certain peptides are marked as “NT” (not tested) against specific bacterial strains based on initial screening data. […] The MIC was determined by micro-broth dilution protocol, where the minimal concentrations were determined to be in wells with no visible bacterial growth.
# All bacterial experiments were carried out in a laminar flow hood (Labconco, Kansas City, MO, USA). The bacterial strains were cultured following the guidelines set by the Clinical Laboratory Standards Institute (CLSI). Antibacterial assays were performed using a standard microtiter dilution method as described in previous studies. The minimum inhibitory concentration (MIC) refers to the lowest peptide concentration that inhibits bacterial growth in wells with no visible bacterial growth. MIC was determined by micro-broth dilution. Bacteria were cultured overnight in 6 mL of Luria Broth (LB). A stock solution of the peptide was prepared in water and DMSO, and a test compound solution with a concentration of 256 µg/mL was made in LB. Meropenem, with a solubility of 8 mg/mL, was prepared as a stock solution at 4 mg/500 µL. An aliquot of the overnight bacteria culture was diluted in normal saline (NS, 1 mL) until achieving a 0.5 McFarland turbidity (1.5 × 10^8 bacterial cell CFU/mL). A 0.5 McFarland compared solution (60 µL) was added to Mueller Hinton Broth (MH) 8940 µL to generate a 1/150 dilution. A 200 µL test compound solution was added to the first well of a 96-well plate, and the remaining wells (2–12) were filled with 100 µL of MH media using a multi-channel pipette from a sterile reservoir. A concentration of […] of the tested peptides was prepared from a stock solution of the samples for testing in Muller−Hinton broth MH media. Peptides stock solution was dissolved in 5% DMSO in water, and the final concentration of DMSO in the first well of assay plate was 2.5% DMSO/H2O and diluted across the assay plate.
# A 100 µL sample from well 1 was pipetted into well 2, and the solution was mixed thoroughly by pipetting up and down. Next, 100 µL was transferred from well 2 to well 3, followed by thorough mixing. This 2-fold serial dilution process continued through well 11, with no additions made to well 12. The final 100 µL from well 11 was discarded. After completing the serial dilution, each well (1–12) contained 100 µL of solution. The bacterial culture in MH media was vortexed and transferred to a sterile reservoir, from which 100 µL was added to each well using a 12-channel pipette. (Note: The dilutions were further diluted upon adding the bacterial solution; for example, the concentration in well 1 started at […] after the addition of the bacterial culture.) The plates were incubated overnight at 37 °C for 24 h. All experiments were performed in triplicate and repeated twice, with controls consisting of bacteria in MH media and positive controls of daptomycin or meropenem.
# C. albicans (ATCC 60193) = test: microbe, parasite or virus in culture; type: cell-based, Candida albicans; settings: ATCC 60193, 24 h
# Method: (§2) The antifungal activity of all ten synthesized linear and cyclic peptides was evaluated against C. albicans (ATCC 60193), C. parapsilosis (ATCC 22019), and A. fumigatus (AF-293). Fluconazole and amphotericin B were used as positive controls for this study. The MIC was determined at concentrations in wells with no visible fungal growth.
# In this study, C. albicans and C. parapsilosis were cultured on Yeast Peptone Dextrose (YPD) agar containing 1% w/v yeast extract, 2% w/v peptone, 2% w/v D-glucose, and 1.5% agar. A single colony from the agar was selected and cultured in Tryptone soy broth supplemented with 0.1% D-glucose, then incubated for 24 h at 37 °C. The cells were washed twice with PBS by centrifugation at 2000 RPM for 5 min. The pellet was resuspended in 5 mL of PBS, diluted in RPMI 1640 with L-glutamine, supplemented with 2% D-glucose, and the pH adjusted using HEPES buffer. The suspension was then incubated for 50 min at 35 °C to achieve a final cell concentration of 10^6 cells/mL.
# Peptide concentrations of 50, 25, 12.5, 6.25, and 3.1 μg/mL were tested in triplicate and repeated twice. Each well of a 96-well plate was inoculated with the prepared inoculum suspension, which was diluted with RPMI media to a final volume of 200 μL per well. The control well received the same inoculum without any compound. The plates were incubated for 24 h at 37 °C. Fungal and microbial growth were visually observed in the control wells, and the minimum inhibitory concentration (MIC) was determined as the lowest concentration at which no growth was detected in the wells. Amphotericin B was used as a standard antifungal drug.
# [1] = system: Gram-negative strains: K. pneumoniae, P. aeruginosa, and E. coli; test: MIC, micro-broth dilution, span over Gram-negative strains; type: cell-based
# Method: as §1
# All bacterial experiments were carried out in a laminar flow hood (Labconco, Kansas City, MO, USA). The bacterial strains were cultured following the guidelines set by the Clinical Laboratory Standards Institute (CLSI). Antibacterial assays were performed using a standard microtiter dilution method as described in previous studies. The minimum inhibitory concentration (MIC) refers to the lowest peptide concentration that inhibits bacterial growth in wells with no visible bacterial growth. MIC was determined by micro-broth dilution. Bacteria were cultured overnight in 6 mL of Luria Broth (LB). […]
# [2] = system: C. parapsilosis and A. fumigatus; type: cell-based; settings: span over the two fungi
# Method: as §2
# A. fumigatus (Af-293) was cultured on Sabouraud dextrose agar (SDA) (Lot #3431660, Oxoid) for 48–72 h at 35 °C to obtain fresh and mature colonies which reached the proper sporulation then used to prepare the inoculum. The colonies were covered with Phosphate-Buffered Saline (PBS) containing 0.025% Tween-20, scraped from the plate, and carefully collected into a sterile tube. The suspension was centrifuged at 3000 RPM for 5 min after the separation between conidia and hyphae. […]
# Peptide concentrations of 50, 25, 12.5, 6.25, and 3.1 μg/mL were tested in triplicate. […] Fungal growth was visualized, and the minimum inhibitory concentration (MIC) was determined as the lowest peptide concentration, where no growth was observed. […]
# Peptide concentrations of 50, 25, 12.5, 6.25, and 3.1 μg/mL were tested in triplicate and repeated twice. […] Fungal and microbial growth were visually observed in the control wells, and the minimum inhibitory concentration (MIC) was determined as the lowest concentration at which no growth was detected in the wells. […]
# LLC-PK1 cells = settings: cited from earlier work
# Source text: (§3) We have previously reported in vitro cytotoxicity of the synthesized peptides in a range of mammalian cell lines, including human ovarian adenocarcinoma cells (SK-OV-3), human peripheral blood lymphoblast cells (CCRF-CEM), healthy human embryonic kidney cells (HEK-293), human mammary adenocarcinoma cells (MDA-MB-468), normal pig kidney epithelial cells (LLC-PK1), and human uterine sarcoma fibroblast cells (MES-SA).
# MDA-MB-468 cells = settings: cited from earlier work
# Source text: as §3
# MES-SA cells = settings: cited from earlier work
# Source text: as §3
smiles,measurement,setting,value
N=C(N)NCCC[C@@H]1NC(=O)[C@H](C(c2ccccc2)c2ccccc2)NC(=O)[C@H](CCCNC(=N)N)NC(=O)[C@H](C(c2ccccc2)c2ccccc2)NC(=O)[C@H](CCCNC(=N)N)NC(=O)[C@H](C(c2ccccc2)c2ccccc2)NC(=O)[C@H](CCCNC(=N)N)NC(=O)[C@H](C(c2ccccc2)c2ccccc2)NC(=O)[C@H](CCCNC(=N)N)NC(=O)[C@H](C(c2ccccc2)c2ccccc2)NC1=O [[DipR]5] (cyclo([Dip]R[Dip]R[Dip]R[Dip]R[Dip]R)),MIC,E. faecium (ATCC 700221),0.78 µM
same,MIC,C. albicans (ATCC 60193),13.1 µM
same,MIC values against Gram-negative strains,[1],12.5–25 µM and 23.8–47.6 µg/mL
same,MIC values against C. parapsilosis and A. fumigatus,[2],1.6–6.6 µM and 3.0–12.5 µg/mL
same,cytotoxicity against LLC-PK1 cells,LLC-PK1 cells,reduced cytotoxicity
same,cytotoxicity against MDA-MB-468 cells,MDA-MB-468 cells,reduced cytotoxicity
same,cytotoxicity against MES-SA cells,MES-SA cells,moderate effects
